{"source": "paper PMC5656594", "about": "(Scientific Reports, 2017)", "key": {"E221A IN^PFV-DNA complex": {"target": "T1, E221A IN^PFV-DNA complex (Human spumaretrovirus, UniProt P14350, E972A/G968S/S969G)", "T1 construct": "The pET-IN-PFV plasmid containing the full-length IN gene was used for mutagenesis; His; made in house; host or cells: E. coli BL21-CodonPlus (DE3)-RIPL", "assay": "Fluorescence enhancement DTG-binding assay, E221A catalytic mutant", "design": "species or system prototype foamy virus (PFV)", "conditions": "1 mM Mg2+", "experimental": "The fluorescence intensity was monitored as a function of (IN + DNA) and plotted as a function of the binary IN-DNA complex concentration (measured as explained in Fig. 2E legend). […] (B) The percentage of ternary complexes was calculated using DTG fluorescence enhancement. […] The graphs in panels A-B show representative data of three independent experiments. […] \"DTG\" is taken from the y-axis title of the same panel.\nTo note, Mg^2+ is dispensable for the overall DNA-binding step of IN[32],[43]–[45] and thus, the loss of Mg^2+ chelation is not contradictory with results showing that catalytic mutants bind equally well to DNA and in a similar manner than wt IN (Supplementary Fig. S6). However, G187R cannot be considered as a catalytic mutant since it sustains a significant ST activity although weak (≈10% of the wt activity; Fig. 6).\nFluorescence excitation and emission spectra of INSTIs were recorded on a Eclipse (Varian) spectrofluorimeter equipped with two polarizers for anisotropy measurements and a thermostated cell holder, using 80 µl solutions placed in micro cells (Hellma). […] The steady-state fluorescence anisotropy was calculated using: r = (IVV–G x IVH)/(IVV + 2GxIVH) where IVV and IVH correspond to vertical and horizontal components, respectively, when the sample is excited with vertically polarized light. […]"}, "S217H IN^PFV mutant": {"test_system": "S217H IN^PFV mutant", "conditions": "S217H versus wt; cited from earlier work"}, "[1]": {"target": "T2, IN^PFV-viral DNA interaction (Human spumaretrovirus, UniProt P14350)", "T2 construct": "The full-length wt IN^PFV, the three single mutants of the catalytic triad; His; made in house; host or cells: E. coli BL21-CodonPlus (DE3)-RIPL", "assay": "IN-viral DNA interaction by steady-state fluorescence anisotropy of Fl-DNA with increasing drug concentrations", "assay_type": "binding, prototype foamy virus (PFV)", "conditions": "400 nM IN^PFV, 4 nM Fl-PFV^CAAT, 10 mM Mg2+, up to 20 µM drug; means INSTI did not prevent IN-DNA interactions", "experimental": "Their incapability to prevent or disrupt IN-viral DNA complexes was consistently observed over the whole concentration range, regardless of the INSTI tested (Supplementary Fig. S7).\nIN^PFV binding to DNA was measured by fluorescence anisotropy on a Beacon Instrument (Panvera, Madison, WI, USA) as previously described[25],[51], using a double-stranded 21-mer Fl-labeled DNA mimicking the PFV U5 LTR end also referred to as DNA#1 in Table 1 (labeled at the 5′-end of the reactive strand). IN binding to Fl-PFV^CAAT (or Fl-DNA#1) was compared to the binding to other DNA sequences (Fl-DNA#8 #9 #13). DNA annealing was obtained by mixing equimolar amounts of complementary strands in buffer A, heating to 85 °C for 5 min and slow cooling to 25 °C. DNA-binding experiments were performed at 25 °C in buffer A.\nFigure S7. Differential effect of INSTI and INBI compounds on the INPFV-viral DNA interaction.\nThe formation of IN-DNA complexes was measured by steady-state fluorescence anisotropy using 400 nM INPFV and 4 nM Fl-PFVCAAT (also named Fl-DNA#1) in the presence of 10 mM Mg2+ and […]\nIn each plot, the starting r value (≈ 0.20) corresponds to the typical value found at saturating concentrations of IN (see Fig. S6).\nThe INBI compound FZ41, a member of the styrylquinoline family of inhibitors, was used as a control […]\nshow mean ± SD values from two independent experiments. […]"}, "S217K IN^PFV mutant": {"test_system": "S217K IN^PFV mutant", "assay_type": "biochemical, prototype foamy virus (PFV)", "conditions": "S217K versus wt, ST activity", "method": "The graphs show representative data of three independent experiments. […] ST products were quantified as explained in the Methods section.\nDNA#13 mimicking the 3′-processed end (Table 1) was radiolabeled with T4 polynucleotide kinase (NEB) and [γ-^32P]ATP (Amersham) and purified on a Sephadex G-10 column. The double-stranded DNA substrate was obtained by mixing equimolar amounts of ssDNA#13 with its 21-mer complementary strand in the presence of 100 mM NaCl. ST reactions were carried out at 37 °C with 200 or 300 nM IN in 20 mM HEPES pH 6.8, 1 mM DTT, 10 mM MgCl2 and 50 mM NaCl, in the presence of 12.5 nM DNA. After separation in a 16% acrylamide/urea denaturing gel, ST products were analyzed with a Typhoon TRIO variable mode imager (GE Healthcare) and quantified with ImageQuant TL software. ST activity was expressed as the % of the signal intensity of ST products divided by the signal intensity of the DNA substrate. […] IC50 values were determined using the Prism 5.0 software."}, "[2]": {"target": "T3, PFV IN complexed with various DNA sequences (Human spumaretrovirus, UniProt P14350)", "T3 construct": "The full-length wt IN^PFV, the three single mutants of the catalytic triad; His; made in house; host or cells: E. coli BL21-CodonPlus (DE3)-RIPL", "assay": "DTG binding to IN complexed with various DNA sequences, fluorescence anisotropy procedure", "design": "species or system prototype foamy virus (PFV)", "conditions": "normalized by DNA#1, [IN]=[DNA]=1.8 μM, [DTG]=0.6 μM, 10 mM Mg2+", "experimental": "The binary complex concentration was measured as explained in Fig. 2E. […] This percentage was then plotted against the concentration of the binary complex (F). […] All graphs show representative data of three (panels A and B) or two (panels C–F) independent experiments.\n(§1) Fluorescence excitation and emission spectra of INSTIs were recorded on a Eclipse (Varian) spectrofluorimeter equipped with two polarizers for anisotropy measurements and a thermostated cell holder, using 80 µl solutions placed in micro cells (Hellma). Drug, IN and DNA concentrations, excitation/emission slit settings as well as the photomultiplier tube (PMT) voltage are specified in figure legends. The intensity value was corrected from the inner filter effect. The steady-state fluorescence anisotropy was calculated using: r = (IVV–G x IVH)/(IVV + 2GxIVH) where IVV and IVH correspond to vertical and horizontal components, respectively, when the sample is excited with vertically polarized light. G represents the correction factor for the difference in the monochromator transmission between // and ⊥ polarized components: G = IHV/IHH. All experiments were performed at 25 °C in buffer A: 20 mM Tris pH 7.2, 50 mM NaCl, 1 mM DTT and 10% (v/v) DMSO."}, "G187R IN^PFV-DNA complex": {"target": "T4, G187R IN^PFV-DNA complex (Human spumaretrovirus, UniProt P14350, G938R/G968S/S969G)", "T4 construct": "The pET-IN-PFV plasmid containing the full-length IN gene was used for mutagenesis; His; made in house; host or cells: E. coli BL21-CodonPlus (DE3)-RIPL", "assay": "Fluorescence enhancement DTG-binding assay, G187R mutant", "design": "species or system prototype foamy virus (PFV)", "conditions": "DTG 0.3 μM, 1 mM Mg2+", "experimental": "The fluorescence intensity was monitored as a function of (IN + DNA) and plotted as a function of the binary IN-DNA complex concentration (measured as explained in Fig. 2E legend). […] The graphs in panels A-B show representative data of three independent experiments.\nas §1"}}, "data": [{"smiles": "C[C@@H]1CCO[C@H]2Cn3cc(C(=O)NCc4ccc(F)cc4F)c(=O)c(O)c3C(=O)N12", "note": "[DTG, dolutegravir]", "values": [{"measurement": "DTG binding to E221A catalytic mutant", "setting": "E221A IN^PFV-DNA complex", "value": "loss of DTG-binding"}, {"measurement": "decrease in DTG susceptibility", "setting": "S217H IN^PFV mutant", "value": "2–3 fold"}, {"measurement": "r value of Fl-DNA (IN-DNA complex) on increasing INSTI concentration", "setting": "[1]", "value": "remained constant"}, {"measurement": "decrease in DTG susceptibility", "setting": "S217K IN^PFV mutant", "value": "≈ 50 fold"}, {"measurement": "DTG-binding (%) Fluorescence anisotropy procedure", "setting": "[2]; DNA#1 (cognate)", "value": 100, "unit": "%"}, {"measurement": "DTG-binding (%) Fluorescence anisotropy procedure", "setting": "[2]; DNA#3", "value": "96 ± 3", "unit": "%"}, {"measurement": "DTG-binding (%) Fluorescence anisotropy procedure", "setting": "[2]; DNA#7", "value": "42 ± 6", "unit": "%"}, {"measurement": "DTG-binding (%) Fluorescence anisotropy procedure", "setting": "[2]; DNA#8", "value": "8 ± 2", "unit": "%"}, {"measurement": "DTG-binding (%) Fluorescence anisotropy procedure", "setting": "[2]; DNA#9 (random sequence)", "value": "15 ± 3", "unit": "%"}, {"measurement": "DTG-binding (%) Fluorescence anisotropy procedure", "setting": "[2]; DNA#11", "value": "29 ± 3", "unit": "%"}, {"measurement": "DTG-binding (%) Fluorescence anisotropy procedure", "setting": "[2]; DNA#12", "value": "77 ± 4", "unit": "%"}, {"measurement": "DTG-binding (%) Fluorescence anisotropy procedure", "setting": "[2]; DNA#13 (processed DNA product)", "value": "79 ± 5", "unit": "%"}, {"measurement": "DTG binding to G187R", "setting": "G187R IN^PFV-DNA complex", "value": "No binding"}]}]}
